Consider nine compounds from ChEMBL document CHEMBL5465560, “Selectivity Literature for EUbOPEN Chemogenomic Library” (2024).

For assay [1], the target named is T1, Serine/threonine-protein kinase PLK4 (Homo sapiens) (UniProt O00444).
T1 sequence (whole entry): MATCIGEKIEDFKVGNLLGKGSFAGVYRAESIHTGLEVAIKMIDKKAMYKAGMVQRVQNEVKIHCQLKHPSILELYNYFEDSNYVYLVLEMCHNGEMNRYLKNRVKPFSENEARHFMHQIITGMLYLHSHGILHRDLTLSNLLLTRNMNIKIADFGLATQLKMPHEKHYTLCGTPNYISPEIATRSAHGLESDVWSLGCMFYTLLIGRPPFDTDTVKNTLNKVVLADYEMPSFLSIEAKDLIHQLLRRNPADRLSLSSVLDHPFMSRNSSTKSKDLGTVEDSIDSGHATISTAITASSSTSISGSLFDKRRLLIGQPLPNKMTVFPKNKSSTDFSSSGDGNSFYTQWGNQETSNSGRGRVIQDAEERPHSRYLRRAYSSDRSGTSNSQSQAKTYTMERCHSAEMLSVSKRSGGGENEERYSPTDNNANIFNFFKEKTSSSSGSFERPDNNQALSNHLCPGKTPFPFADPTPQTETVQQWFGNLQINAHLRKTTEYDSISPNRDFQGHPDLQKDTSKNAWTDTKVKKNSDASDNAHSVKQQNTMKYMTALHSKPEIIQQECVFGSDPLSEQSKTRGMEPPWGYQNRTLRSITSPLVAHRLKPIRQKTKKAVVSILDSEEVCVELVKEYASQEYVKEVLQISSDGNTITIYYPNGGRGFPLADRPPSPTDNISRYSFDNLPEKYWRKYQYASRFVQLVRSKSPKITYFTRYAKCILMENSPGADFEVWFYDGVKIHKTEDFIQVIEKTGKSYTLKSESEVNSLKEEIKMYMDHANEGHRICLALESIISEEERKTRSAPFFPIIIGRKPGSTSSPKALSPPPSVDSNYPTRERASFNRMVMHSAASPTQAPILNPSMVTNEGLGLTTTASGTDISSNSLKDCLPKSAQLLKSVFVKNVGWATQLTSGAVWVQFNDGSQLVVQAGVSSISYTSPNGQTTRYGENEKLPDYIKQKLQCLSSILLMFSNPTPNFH
The assay is described as follows: Selectivity interaction (Kinase panel (DSF assay)) EUB0001489b PLK4.

The target of assay [2] is T2, Phosphatidylinositol 4,5-bisphosphate 3-kinase catalytic subunit delta isoform (Homo sapiens) (UniProt O00329).
T2 sequence (whole entry): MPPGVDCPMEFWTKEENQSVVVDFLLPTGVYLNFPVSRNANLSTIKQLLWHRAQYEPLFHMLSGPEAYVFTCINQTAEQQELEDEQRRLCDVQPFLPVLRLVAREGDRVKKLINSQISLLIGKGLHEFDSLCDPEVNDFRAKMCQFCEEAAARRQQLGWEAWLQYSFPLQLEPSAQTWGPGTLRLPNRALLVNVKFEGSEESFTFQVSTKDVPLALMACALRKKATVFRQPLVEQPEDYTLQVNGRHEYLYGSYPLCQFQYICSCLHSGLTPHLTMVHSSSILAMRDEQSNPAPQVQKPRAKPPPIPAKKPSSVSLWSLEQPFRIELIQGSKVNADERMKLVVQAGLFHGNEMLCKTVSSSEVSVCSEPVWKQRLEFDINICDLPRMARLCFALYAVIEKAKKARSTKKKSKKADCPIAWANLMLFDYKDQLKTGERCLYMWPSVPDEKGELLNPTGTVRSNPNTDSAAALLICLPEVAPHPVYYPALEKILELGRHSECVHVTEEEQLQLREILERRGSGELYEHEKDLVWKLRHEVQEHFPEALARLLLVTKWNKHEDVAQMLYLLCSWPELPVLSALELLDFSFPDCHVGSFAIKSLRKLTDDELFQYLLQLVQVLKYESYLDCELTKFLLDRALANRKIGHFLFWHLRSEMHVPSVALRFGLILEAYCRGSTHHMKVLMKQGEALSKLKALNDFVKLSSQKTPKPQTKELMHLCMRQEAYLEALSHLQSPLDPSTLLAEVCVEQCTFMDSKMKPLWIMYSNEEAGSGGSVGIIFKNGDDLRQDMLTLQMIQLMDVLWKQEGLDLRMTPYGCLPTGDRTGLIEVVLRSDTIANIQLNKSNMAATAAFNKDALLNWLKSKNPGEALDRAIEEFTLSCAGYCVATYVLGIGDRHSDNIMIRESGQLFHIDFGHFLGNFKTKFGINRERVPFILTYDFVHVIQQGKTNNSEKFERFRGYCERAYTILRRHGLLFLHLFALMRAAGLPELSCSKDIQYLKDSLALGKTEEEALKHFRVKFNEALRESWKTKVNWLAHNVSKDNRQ
The assay is described as follows: Selectivity interaction (ActivX KiNativ screen (ex vivo kinase selectivity in human PBMCs)) EUB0001619a PIK3CD. As to conditions: PBMC, at 1 µM. It counts as cell-based.

Assay [3] addresses Mitogen-activated protein kinase kinase kinase 9 (Homo sapiens) (UniProt P80192). The note with it: at 10 µM.
For assay [4], the system named is Tyrosine-protein kinase ABL1 (Homo sapiens), P00519 [E255K]. As to conditions: at 10 µM.
Assay [5] has as its target Serine/threonine-protein kinase B-raf (Homo sapiens, UniProt P15056, V600E). Put plainly: Selectivity interaction (Radiometric kinase assay (using 10 uM ATP)) EUB0000601a BRAF.
In assay [6] the target is Tyrosine-protein kinase JAK1 (Homo sapiens, UniProt P23458). The assay is described as follows: Selectivity interaction (ActivX KiNativ screen (kinase selectivity in THP-1 cell lysates)) EUB0000639a JAK1. As to conditions: lysate, at 5 µM. It is filed as subcellular.
In assay [7] the test system is ALK tyrosine kinase receptor (Homo sapiens), Q9UM73 [C1156Y]. Put plainly: (§1) Selectivity interaction (Ambit KINOMEscan and KiNATiv profiling in Jurkat cells) EUB0000090b ALK. It counts as cell-based. As to conditions: at 1 µM.
For assay [8], the system named is ALK tyrosine kinase receptor (Homo sapiens), Q9UM73 [L1196M]. The assay is described as §1. It counts as cell-based. As to conditions: at 1 µM.
In assay [9] the target is Serine/threonine-protein kinase PAK 6 (Homo sapiens) (UniProt Q9NQU5). Put plainly: Selectivity interaction (KinomeScan (DiscoverX)) EUB0000618a PAK6. As to conditions: at 10 µM.
The target of assay [10] is Serine/threonine-protein kinase SIK1 (Homo sapiens) (UniProt P57059). Put plainly: Selectivity interaction (KinomeScan (DiscoverX)) EUB0001079a SIK1. The note with it: at 1 µM.

SMILES strings stand for the structures. Bounds are passed on as bounds.

Sequence of ALK tyrosine kinase receptor (Homo sapiens), Q9UM73 [L1196M] (Q9UM73 whole entry L1196M, looked up): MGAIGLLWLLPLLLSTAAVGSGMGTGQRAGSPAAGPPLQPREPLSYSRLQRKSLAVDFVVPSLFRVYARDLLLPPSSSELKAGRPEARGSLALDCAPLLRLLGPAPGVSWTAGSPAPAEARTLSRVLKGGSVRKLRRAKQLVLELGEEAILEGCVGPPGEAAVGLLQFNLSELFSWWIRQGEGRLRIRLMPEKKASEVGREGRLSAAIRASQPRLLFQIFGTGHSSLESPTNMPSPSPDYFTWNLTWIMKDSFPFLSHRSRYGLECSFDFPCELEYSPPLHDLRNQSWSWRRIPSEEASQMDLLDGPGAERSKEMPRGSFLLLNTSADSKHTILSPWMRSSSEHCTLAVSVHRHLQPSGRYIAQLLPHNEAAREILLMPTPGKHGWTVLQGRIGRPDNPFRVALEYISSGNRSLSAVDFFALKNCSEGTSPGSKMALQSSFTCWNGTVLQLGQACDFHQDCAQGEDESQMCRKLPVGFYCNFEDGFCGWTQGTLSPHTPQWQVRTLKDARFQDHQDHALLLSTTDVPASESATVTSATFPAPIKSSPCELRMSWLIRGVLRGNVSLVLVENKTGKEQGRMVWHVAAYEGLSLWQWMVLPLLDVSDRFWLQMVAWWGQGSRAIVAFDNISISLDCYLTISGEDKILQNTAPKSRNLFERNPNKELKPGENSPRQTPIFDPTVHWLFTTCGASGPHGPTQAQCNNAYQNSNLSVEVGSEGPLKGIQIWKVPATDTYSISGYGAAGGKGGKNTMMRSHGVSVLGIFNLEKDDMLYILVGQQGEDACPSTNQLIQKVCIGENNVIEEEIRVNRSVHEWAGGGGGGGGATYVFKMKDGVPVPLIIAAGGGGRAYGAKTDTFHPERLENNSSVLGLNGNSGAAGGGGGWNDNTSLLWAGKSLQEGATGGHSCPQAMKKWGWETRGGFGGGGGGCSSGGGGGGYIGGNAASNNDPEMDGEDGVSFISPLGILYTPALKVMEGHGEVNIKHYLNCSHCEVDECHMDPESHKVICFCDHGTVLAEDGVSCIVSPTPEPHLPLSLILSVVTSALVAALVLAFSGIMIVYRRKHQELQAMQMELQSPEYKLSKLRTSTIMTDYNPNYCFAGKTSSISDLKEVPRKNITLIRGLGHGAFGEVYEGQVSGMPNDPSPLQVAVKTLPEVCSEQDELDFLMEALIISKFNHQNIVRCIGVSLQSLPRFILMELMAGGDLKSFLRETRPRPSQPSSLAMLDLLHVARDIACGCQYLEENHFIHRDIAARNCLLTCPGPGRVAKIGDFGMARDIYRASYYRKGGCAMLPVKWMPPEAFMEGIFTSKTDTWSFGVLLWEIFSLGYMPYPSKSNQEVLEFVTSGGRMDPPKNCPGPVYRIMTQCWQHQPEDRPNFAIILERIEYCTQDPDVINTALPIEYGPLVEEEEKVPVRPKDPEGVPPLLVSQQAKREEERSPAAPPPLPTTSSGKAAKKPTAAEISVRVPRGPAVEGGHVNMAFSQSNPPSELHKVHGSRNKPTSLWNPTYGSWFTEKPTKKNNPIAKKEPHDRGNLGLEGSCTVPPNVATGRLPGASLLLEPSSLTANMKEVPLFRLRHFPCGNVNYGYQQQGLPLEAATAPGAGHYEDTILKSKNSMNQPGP
Sequence of ALK tyrosine kinase receptor (Homo sapiens), Q9UM73 [C1156Y] (Q9UM73 whole entry C1156Y, looked up): as the sequence (Q9UM73 whole entry L1196M, looked up) above, with C1156Y, M1196L counted along it
Sequence of Mitogen-activated protein kinase kinase kinase 9 (Homo sapiens) (P80192 whole entry, looked up): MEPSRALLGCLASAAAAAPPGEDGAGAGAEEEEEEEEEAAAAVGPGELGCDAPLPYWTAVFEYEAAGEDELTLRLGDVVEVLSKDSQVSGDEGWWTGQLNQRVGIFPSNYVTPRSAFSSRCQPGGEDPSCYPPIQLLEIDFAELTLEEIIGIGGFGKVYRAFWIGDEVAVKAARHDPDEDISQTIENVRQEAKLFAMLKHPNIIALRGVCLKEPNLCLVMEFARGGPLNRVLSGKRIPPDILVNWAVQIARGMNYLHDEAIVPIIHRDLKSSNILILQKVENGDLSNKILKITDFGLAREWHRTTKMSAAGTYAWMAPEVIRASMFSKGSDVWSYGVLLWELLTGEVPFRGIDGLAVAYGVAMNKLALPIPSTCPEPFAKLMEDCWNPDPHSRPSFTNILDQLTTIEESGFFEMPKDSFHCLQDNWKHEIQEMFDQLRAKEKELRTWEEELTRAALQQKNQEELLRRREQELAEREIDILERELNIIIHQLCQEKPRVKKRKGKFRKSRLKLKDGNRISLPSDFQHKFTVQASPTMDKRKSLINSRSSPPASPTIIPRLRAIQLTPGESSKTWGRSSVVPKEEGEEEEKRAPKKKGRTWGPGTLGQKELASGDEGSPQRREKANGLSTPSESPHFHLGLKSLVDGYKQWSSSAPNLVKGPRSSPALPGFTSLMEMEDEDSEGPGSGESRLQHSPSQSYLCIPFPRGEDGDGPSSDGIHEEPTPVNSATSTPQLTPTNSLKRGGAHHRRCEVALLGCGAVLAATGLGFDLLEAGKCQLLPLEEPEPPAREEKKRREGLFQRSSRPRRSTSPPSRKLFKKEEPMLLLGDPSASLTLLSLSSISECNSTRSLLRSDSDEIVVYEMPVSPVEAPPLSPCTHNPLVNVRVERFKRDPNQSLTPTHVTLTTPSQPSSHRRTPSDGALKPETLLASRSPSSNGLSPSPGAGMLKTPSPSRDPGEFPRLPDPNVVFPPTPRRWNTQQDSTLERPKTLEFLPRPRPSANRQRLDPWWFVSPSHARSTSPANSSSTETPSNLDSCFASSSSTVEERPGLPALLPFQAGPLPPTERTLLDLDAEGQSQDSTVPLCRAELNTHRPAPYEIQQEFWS
Sequence of Tyrosine-protein kinase ABL1 (Homo sapiens), P00519 [E255K] (P00519 whole entry E255K): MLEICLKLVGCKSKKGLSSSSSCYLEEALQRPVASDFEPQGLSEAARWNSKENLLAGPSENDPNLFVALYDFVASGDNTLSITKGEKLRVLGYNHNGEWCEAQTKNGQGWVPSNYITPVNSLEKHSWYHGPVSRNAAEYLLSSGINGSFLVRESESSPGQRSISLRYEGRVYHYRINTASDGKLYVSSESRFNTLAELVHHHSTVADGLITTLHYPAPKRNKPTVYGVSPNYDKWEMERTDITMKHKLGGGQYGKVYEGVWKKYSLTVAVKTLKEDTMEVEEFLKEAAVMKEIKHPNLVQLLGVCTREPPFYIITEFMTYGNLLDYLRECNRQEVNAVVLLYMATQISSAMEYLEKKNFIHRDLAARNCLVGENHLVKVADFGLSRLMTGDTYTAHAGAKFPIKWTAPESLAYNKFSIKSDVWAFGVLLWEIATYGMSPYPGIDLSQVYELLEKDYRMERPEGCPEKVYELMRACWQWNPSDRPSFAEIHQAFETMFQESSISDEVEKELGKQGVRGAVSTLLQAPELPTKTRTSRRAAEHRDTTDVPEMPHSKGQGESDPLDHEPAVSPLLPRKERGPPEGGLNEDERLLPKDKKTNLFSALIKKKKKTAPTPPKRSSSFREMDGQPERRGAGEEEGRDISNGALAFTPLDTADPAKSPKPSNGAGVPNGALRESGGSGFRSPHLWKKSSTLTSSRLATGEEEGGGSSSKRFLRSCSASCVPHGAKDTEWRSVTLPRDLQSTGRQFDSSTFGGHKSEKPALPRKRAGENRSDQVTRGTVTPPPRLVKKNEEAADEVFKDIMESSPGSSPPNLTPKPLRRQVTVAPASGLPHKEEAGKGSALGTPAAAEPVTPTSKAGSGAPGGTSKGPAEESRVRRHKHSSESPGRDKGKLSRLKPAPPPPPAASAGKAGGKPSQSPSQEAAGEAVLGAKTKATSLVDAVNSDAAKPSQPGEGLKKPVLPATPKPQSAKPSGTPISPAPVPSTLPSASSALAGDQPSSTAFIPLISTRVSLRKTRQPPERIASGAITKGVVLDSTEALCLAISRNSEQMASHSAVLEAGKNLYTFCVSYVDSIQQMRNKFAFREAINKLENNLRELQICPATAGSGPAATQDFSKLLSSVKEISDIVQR
Sequence of Tyrosine-protein kinase JAK1 (P23458 whole entry): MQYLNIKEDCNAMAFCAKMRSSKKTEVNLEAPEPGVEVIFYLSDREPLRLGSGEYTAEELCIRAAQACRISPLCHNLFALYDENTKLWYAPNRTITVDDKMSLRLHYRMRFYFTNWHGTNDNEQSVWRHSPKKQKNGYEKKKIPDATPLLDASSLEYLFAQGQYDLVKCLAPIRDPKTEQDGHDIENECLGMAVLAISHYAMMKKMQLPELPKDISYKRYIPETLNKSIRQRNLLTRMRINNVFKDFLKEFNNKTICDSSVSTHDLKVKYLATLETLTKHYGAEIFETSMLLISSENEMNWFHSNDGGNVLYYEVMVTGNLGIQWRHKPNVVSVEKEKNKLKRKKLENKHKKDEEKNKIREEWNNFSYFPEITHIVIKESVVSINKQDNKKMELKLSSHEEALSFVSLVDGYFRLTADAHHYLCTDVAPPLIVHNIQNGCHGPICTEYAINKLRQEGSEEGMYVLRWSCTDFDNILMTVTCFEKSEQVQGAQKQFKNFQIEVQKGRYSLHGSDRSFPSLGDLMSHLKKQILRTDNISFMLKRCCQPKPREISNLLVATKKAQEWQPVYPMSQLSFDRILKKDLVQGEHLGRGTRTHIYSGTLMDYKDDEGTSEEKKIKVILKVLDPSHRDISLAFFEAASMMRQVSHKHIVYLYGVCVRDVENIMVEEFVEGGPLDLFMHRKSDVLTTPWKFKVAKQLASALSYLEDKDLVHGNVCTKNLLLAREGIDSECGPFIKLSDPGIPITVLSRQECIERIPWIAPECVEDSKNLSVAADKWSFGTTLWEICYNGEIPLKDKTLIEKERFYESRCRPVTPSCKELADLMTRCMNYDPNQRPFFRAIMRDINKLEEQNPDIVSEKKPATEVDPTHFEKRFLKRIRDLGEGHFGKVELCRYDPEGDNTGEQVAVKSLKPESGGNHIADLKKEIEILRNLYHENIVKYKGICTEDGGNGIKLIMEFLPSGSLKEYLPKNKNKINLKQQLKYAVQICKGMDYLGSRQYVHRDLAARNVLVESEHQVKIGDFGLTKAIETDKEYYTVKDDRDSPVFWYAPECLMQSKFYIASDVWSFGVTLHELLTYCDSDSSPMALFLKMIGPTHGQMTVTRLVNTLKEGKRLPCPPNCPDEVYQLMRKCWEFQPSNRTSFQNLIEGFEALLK

Take `CN1CCN(C(=O)c2ccc3cc2OCCOCCNc2ccn4ncc-3c4n2)CC1`: the dTM in assay [1] was determined as 4 K.
Turning to `N#Cc1cccc(-c2c[nH]c3ncnc(N4CCOCC4)c23)c1`, in [2], the % of inhibition is -12%.
As for `CCN(CC)CCCCNc1ncc2cc(-c3cc(OC)cc(OC)c3)c(NC(=O)NC(C)(C)C)nc2n1`, the % of control in assay [3] turned out to be 100%.
In turn, `Cc1cc([C@@H](C)Nc2ccccc2C(=O)O)c2nc(N3CCOCC3)cc(=O)n2c1` [AZD-6482] returned a % of control in assay [4] of 94%.
`CCc1cc(Nc2nccc(-c3c(-c4ccc(OC)c(C(=O)Nc5c(F)cccc5F)c4)nc4ccccn34)n2)c(OC)cc1N1CCC(N2CCN(S(C)(=O)=O)CC2)CC1` had an IC50 in assay [5] greater than 2000 nM.
For the compound `CC[C@@H]1[C@H](F)C(=O)N[C@@H]1COc1nccc2cc(C(N)=O)c(OC)cc12` [ZIMLOVISERTIB], in assay [6], the % of inhibition is -35.3%.
Consider `CN(C)C/C=C/C(=O)Nc1ccc(C(=O)N2CCCC(Nc3ncc(Cl)c(-c4c[nH]c5ccccc45)n3)C2)cc1` (stereo not given), for which the % of control in assay [7] turned out to be 100%; in assay [8], 99%.
For the compound `O[C@H]1CC[C@H](Nc2ncc3nc(Nc4c(F)cc(F)cc4F)n([C@H]4CCOC4)c3n2)CC1`, the % of control in assay [9] worked out at 100%.
As for `Nc1cnc(N2CCc3cc(S(=O)(=O)Nc4c(F)cc(Cl)cc4F)cc(N4CCCC4=O)c32)nc1` [TP-020n], in assay [10], the % of control was 100%.
